Test results as given in ChEMBL document CHEMBL4152274, “Design, synthesis and X-ray crystallography of selenides bearing benzenesulfonamide moiety with neuropathic pain modulating effects” (Eur J Med Chem, 2018).
Activity calls are given as the source filed them. No cut-off for these calls is given here.

System: Mus musculus
Assay: Pain relieving effect in mouse oxaliplatin-induced neuropathic pain model at 30 mg/kg, po measured at 30 mins by cold plate test
Assay type: functional, organism-based

Structure (SMILES) | Activity
NS(=O)(=O)c1ccc(C[Se]c2ccccc2)cc1 | Active

System: Mus musculus
Assay: Pain relieving effect in mouse oxaliplatin-induced neuropathic pain model at 100 mg/kg, po measured over 15 to 45 mins by cold plate test
Assay type: functional, organism-based

Structure (SMILES) | Activity
NS(=O)(=O)c1ccc([Se]CCc2ccccc2)cc1 | Active
COCC[Se]c1ccc(S(N)(=O)=O)cc1 | Active

Target: Carbonic anhydrase 9 (Homo sapiens, UniProt Q16790)
Assay: Inhibition of human carbonic anhydrase 9 incubated for 15 mins prior to testing by stopped-flow CO2 hydration assay

Structure (SMILES) | Ki
NS(=O)(=O)c1ccc(C[Se]c2ccc(NC(=O)Nc3ccc(F)cc3)cc2)cc1 | 1070 nM
NS(=O)(=O)c1ccc([Se]Cc2ccccc2)cc1 | 549 nM
CN(C)c1ccc([Se]Cc2ccc(S(N)(=O)=O)cc2)cc1 | 450 nM
N#C[Se]Cc1ccc(S(N)(=O)=O)cc1 | 4 nM
NS(=O)(=O)c1ccc([Se]CC2CC2)cc1 | 46.4 nM
NS(=O)(=O)c1ccc(C[Se]c2ccc(NC(=S)Nc3ccc(-c4c5ccc(=O)cc-5oc5cc(O)ccc45)c(C(=O)O)c3)cc2)cc1 | 697 nM
COc1ccc(C(=O)Nc2ccc([Se]Cc3ccc(S(N)(=O)=O)cc3)cc2)c(OC)c1 | 845 nM
Cc1cc(C)cc(NC(=O)Nc2ccc([Se]Cc3ccc(S(N)(=O)=O)cc3)cc2)c1 | 1140 nM
NS(=O)(=O)c1ccc(C[Se]c2ccc(NC(=O)/C=C/c3ccccc3)cc2)cc1 | 1010 nM
CC(=O)Oc1ccccc1C(=O)Nc1ccc([Se]Cc2ccc(S(N)(=O)=O)cc2)cc1 | 710 nM
Nc1ccc([Se]Cc2ccc(S(N)(=O)=O)cc2)cc1 | 286 nM
NS(=O)(=O)c1ccc(C[Se]c2ccc3ccccc3c2)cc1 | 337 nM
